This assay deals with mast cell. Nature of the assay: Mast cell degranulation in rats (histamine released). The assay is classed as in vivo. The following applies: 25 mg/kg p.o., mean ± S.E.M. Here is the method:
Mast cell degranulation: Tyrode solution (10 ml) containing 5 units/ml of heparin was injected in the peritoneal cavity of sensitized male rats lightly anaesthetized with ether. After a gentle abdominal massage for about 30 to 45 sec, the mast cell rich peritoneal fluid was collected over ice and centrifuged at 2000 rpm for 5 min. The cells were washed thrice with chilled Tyrode and resuspended in about 1 ml of Tyrode solution. The peritoneal fluid was obtained from 10 rats and the final volume of the fluid was pooled and used for the studies (Nair A M et al, 1997).

Marks after values point to notes of the source that are not given here.

Regarding `CN(C)CCC(c1ccccc1)c1ccccn1.O=C(O)/C=C\C(=O)O` (stereo not shown) [Avil], the Histamine released is 0.345 ± 0.04^b μg/ml.

For the origin of these results see patent US20060141067A1, “Anti-allergic herbal formulation” (priority 2004, published 2006).
